The test concerns the target T1, USP8 (Homo sapiens, UniProt P40818).
T1 construct: His tag (from vector pFastBac-HT) (N); made in house; host or cells: insect cells (Sf9 or High Five), baculovirus
T1 sequence (P40818 1-1118): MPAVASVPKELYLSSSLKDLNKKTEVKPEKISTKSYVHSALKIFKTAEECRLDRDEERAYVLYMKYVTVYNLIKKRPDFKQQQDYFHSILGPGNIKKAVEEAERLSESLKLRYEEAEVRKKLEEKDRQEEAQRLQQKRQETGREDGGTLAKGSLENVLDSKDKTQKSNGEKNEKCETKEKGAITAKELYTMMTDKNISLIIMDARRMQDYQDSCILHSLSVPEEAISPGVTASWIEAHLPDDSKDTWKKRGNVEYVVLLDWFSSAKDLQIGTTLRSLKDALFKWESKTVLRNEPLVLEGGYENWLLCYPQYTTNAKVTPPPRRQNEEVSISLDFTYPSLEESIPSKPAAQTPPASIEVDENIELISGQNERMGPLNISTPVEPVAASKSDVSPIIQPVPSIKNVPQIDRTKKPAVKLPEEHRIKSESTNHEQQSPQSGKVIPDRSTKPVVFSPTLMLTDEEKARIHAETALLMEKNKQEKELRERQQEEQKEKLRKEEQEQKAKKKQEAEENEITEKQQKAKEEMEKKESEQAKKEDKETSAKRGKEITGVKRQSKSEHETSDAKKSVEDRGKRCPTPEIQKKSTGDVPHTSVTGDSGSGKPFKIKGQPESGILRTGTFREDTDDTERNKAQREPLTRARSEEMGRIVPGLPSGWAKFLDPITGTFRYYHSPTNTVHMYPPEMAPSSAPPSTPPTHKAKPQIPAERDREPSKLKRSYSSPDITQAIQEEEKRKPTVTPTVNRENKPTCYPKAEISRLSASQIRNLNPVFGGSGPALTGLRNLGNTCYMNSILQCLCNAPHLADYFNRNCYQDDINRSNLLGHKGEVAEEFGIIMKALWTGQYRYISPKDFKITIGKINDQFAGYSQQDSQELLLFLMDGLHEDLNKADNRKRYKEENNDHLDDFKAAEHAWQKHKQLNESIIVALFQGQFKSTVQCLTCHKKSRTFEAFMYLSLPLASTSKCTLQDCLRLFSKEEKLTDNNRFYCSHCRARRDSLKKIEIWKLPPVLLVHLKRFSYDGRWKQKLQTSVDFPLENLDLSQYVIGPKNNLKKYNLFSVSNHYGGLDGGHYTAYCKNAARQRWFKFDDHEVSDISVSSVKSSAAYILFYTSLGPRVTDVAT
As to the kind of experiment: USP8 activity assay (Ub-AMC). The test is classed as biochemical. As to conditions: 400 nM Ub-AMC, 630 pM enzyme, pH8.8, 30 min pre-incubation, 60 min at 37° C., sigmoidal fit; read-out: USP8 (inhibition of cysteine protease activity). The source says:
The cDNA encoding USP8 was obtained by PCR amplification from placenta mRNA. USP8 cDNA was subcloned by PCR into a baculovirus expression vector (pFastBac-HT; Invitrogen). A cDNA encoding a mutated USP8 was generated by mutagenic PCR. The corresponding protein encodes a cysteine to alanine substitution at residue 786. The sequences were ascertained by sequencing of the entire open reading frame. Bacmids encoding […] were generated following. DH10bac transposition. The corresponding bacmids were transfected into insect cells (Sf9). Viruses were recovered from culture supernatant and amplified twice. Insect cells (Sf9 or High Five; Invitrogen) were infected for 72 hours. Total cell lysates were harvested and lyzed in lysis buffer (Tris HCl 50 mM pH7.6; 0.75% NP40; 500 mM NaCl; 10% glycerol; 1 mM DTT; 10 mM imidazole; Protease Inhibitor Cocktail; AEBSF 20 μg.ml^−1; Aprotinin 10 μg.ml^−1). Proteins were affinity purified on metal affinity resins (Talon Metal affinity resin; BD Biosciences). Bound materials were extensively washed in wash buffer (50 mM Sodium Phosphate pH 7.0; 300 mM NaCl; 10 mM imidazole; 0.5% Triton X-100; 10% glycerol) and eluted from the resin in 250 mM imidazole-containing wash buffer. Proteins were dialyzed in dialysis buffer (Tris HCl pH 7.6 20 mM; NaCl 200 mM; DTT 1 mM; EDTA 1 mM; 10% Glycerol). Proteins purifications were analyzed on 4-12% NuPAGE (Invitrogen).
USP8 was diluted in USP buffer (50 mM Tris HCl; 0.5 mM EDTA; 5 mM DTT; 0.01% Triton X-100; Bovine Serum Albumin 0.05 mg.ml^−1 pH8.8). Compounds stocks (100 mM) were stored at −20° C. in DMSO.
Reactions were performed as duplicates in Black LJL 96 well plates (HE microplates; Molecular Devices; 20 μl final reaction volume). The substrate concentration for USP8 was 400 nM Ub-AMC (Boston Biochem). The concentrations of the enzyme (USP8) in specificity assays was 630 pM. The concentrations were determined in order to perform specificity assays under initial velocities at fixed substrate concentration. Compounds were pre-incubated with enzymes for 30 minutes at 25° C. Reactions were initiated by addition of substrate to the plates containing the enzymes (+/−compounds) diluted in assay buffer. Reactions were incubated for 60 minutes at 37° C. Reactions were stopped by adding acetic acid (100 mM final). Readings were performed on a Pherastar Fluorescent Reader (BMG). λ Emission 380 nm; λ Excitation=460 nm. Data (mean values +/−standard deviation) were analyzed as % of control (no compound) and plotted as percentage versus the Log of the compound concentration using GraphPad (Prism). Data were fitted to a sigmoidal model (variable slope).
For the compound `CON=C1c2ccccc2-c2nn3c(C)nnc3nc21` (mixture of isomers) [5a, 3-Methyl-1,2,3a,4,10-pentaaza-cyclopenta[b]fluoren-9-one O-methyl-oxime], the IC50 was determined as 580 nM.
Take `C=CCON=C1c2ccccc2-c2nn3c(C)nnc3nc21` (mixture of isomers) [5b, 3-Methyl-1,2,3a,4,10-pentaaza-cyclopenta[b]fluoren-9-one O-allyl-oxime]: the IC50 came to 355 nM.
With `C=CCON=C1c2ccccc2-c2nn3c(CCCC)nnc3nc21` (mixture of isomers) [5d, 3-Butyl-1,2,3a,4,10-pentaaza-cyclopenta[b]fluoren-9-one O-allyl-oxime], the IC50 came out at 565 nM.
As to `CCCCCCCCCCON=C1c2ccccc2-c2nn3nnnc3nc21` (mixture of isomers) [8a, 1,2,3,3a, 4,10-Hexaaza-cyclopenta[b]fluoren-9-one O-decyl-oxime], the IC50 worked out at 27800 nM.
With `c1ccc(OCCCON=C2c3ccccc3-c3nn4nnnc4nc32)cc1` (mixture of isomers) [8c, 1,2,3,3a,4,10-Hexaaza-cyclopenta[b]fluoren-9-one O-(3-phenoxy-propyl)-oxime] the figure was 225 nM.
Take `CCc1nnc2nc3c(nn12)-c1ccccc1C3=NOC` (mixture of isomers) [10b, 3-Ethyl-1,2,3a,4,10-pentaaza-cyclopenta[b]fluoren-9-one O-methyl-oxime]: the IC50 amounted to 528 nM.
In the case of `CCON=C1c2ccccc2-c2nn3c(CC)nnc3nc21` (mixture of isomers) [10d, 3-Ethyl-1,2,3a,4,10-pentaaza-cyclopenta[b]fluoren-9-one O-ethyl-oxime], the IC50 worked out at 381 nM.
For the compound `C=CCON=C1c2ccccc2-c2nn3c(CC)nnc3nc21` (mixture of isomers) [10f, 3-Ethyl-1,2,3a,4,10-pentaaza-cyclopenta[b]fluoren-9-one O-allyl-oxime], the IC50 turned out to be 342 nM.
As to `CCc1nnc2nc3c(nn12)-c1ccccc1C3=NOCc1ccccc1` (mixture of isomers) [10h, 3-Ethyl-1,2,3a,4,10-pentaaza-cyclopenta[b]fluoren-9-one O-benzyl-oxime], the IC50 is 807 nM.
